The assay has as its target T1, Cbl-B (Homo sapiens, UniProt Q13191).
T1 construct: MSD-Based Assay for Degradation of Cbl-B in THP-1 Cells; endogenous in cells; host or cells: THP-1 (title) / Jurkat (protocol text)
Briefly: MSD-based assay for degradation of Cbl-B in THP-1 cells. It is filed as cell-based. How it is done:
MSD-Based Assay for Degradation of Cbl-B in THP-1 Cells
Assay plates were then shaken at 600 rpm for 5 minutes, followed by incubation for 24 hours in the 37° C. TC incubator. […] Cell debris was then spun down at maximum speed (about 3200 g) for 30 min and lysates frozen in the −80° C. fridge. Meanwhile, MSD plates (L15XA-3) were coated overnight at 4° C. with 1 ug/mL capture antibody (Anti-Cbl-B antibody, 246C5a and Mouse mAB, ab54362). […] Blocking buffer was 3% Blocker A (MSD, R93BA-4) in TBST. Plates were washed 3× with 150 ul/well of 1×TBST and sample lysates (70 ul/well) then added, followed by shaking for 1 hr at RT, 600 rpm. […] Plates were again washed 3× with 150 ul/well of 1×TBST, followed by addition of Secondary Detection antibody, SULFO-TAG anti-species antibody (Anti Rabbit Antibody (R32AB-5) MSD, R32AB-1) at a final concentration of 1 ug/ml and 25 uL/well, followed by shaking for 1 hr at RT, 600 rpm. Plates were again washed 3× with 150 ul/well of 1×TBST, followed by addition of 1×MSD reading buffer (MSD, R92TC-2), 150 ul/well, diluted from 4× with water.
Compound Dmax were binned into A through D as follows: A indicates >70%, B indicates 50-70%, C indicates 30-50%, D indicates <30%.

Where [1] appears, read: Cbl-B degradation, Jurkat cells seeded (heading: THP-1 cells), 24 hours incubation, MSD readout.
Setting [2] is: Cbl-B degradation, Jurkat cells seeded (heading: THP-1 cells), 24 hours incubation, MSD readout, read-out: Dmax.

SMILES strings stand for the structures. Like-named read-outs stand apart in the source and are kept apart here. A value given as a limit tells only on which side of the number the result lay.

We go through 26 compounds from patent US20250340552A1, “COMPOUNDS, COMPOSITIONS AND METHODS OF TREATING DISORDERS” (HOTSPOT THERAPEUTICS, INC., priority 2022, published 2025).

What is called DC50 is the concentration at which degradation of the target reaches its halfway point. A lower DC50 goes with a more potent degrader. One may read the Dmax as the largest share of the target that was removed.

T1 sequence (Q13191 whole entry): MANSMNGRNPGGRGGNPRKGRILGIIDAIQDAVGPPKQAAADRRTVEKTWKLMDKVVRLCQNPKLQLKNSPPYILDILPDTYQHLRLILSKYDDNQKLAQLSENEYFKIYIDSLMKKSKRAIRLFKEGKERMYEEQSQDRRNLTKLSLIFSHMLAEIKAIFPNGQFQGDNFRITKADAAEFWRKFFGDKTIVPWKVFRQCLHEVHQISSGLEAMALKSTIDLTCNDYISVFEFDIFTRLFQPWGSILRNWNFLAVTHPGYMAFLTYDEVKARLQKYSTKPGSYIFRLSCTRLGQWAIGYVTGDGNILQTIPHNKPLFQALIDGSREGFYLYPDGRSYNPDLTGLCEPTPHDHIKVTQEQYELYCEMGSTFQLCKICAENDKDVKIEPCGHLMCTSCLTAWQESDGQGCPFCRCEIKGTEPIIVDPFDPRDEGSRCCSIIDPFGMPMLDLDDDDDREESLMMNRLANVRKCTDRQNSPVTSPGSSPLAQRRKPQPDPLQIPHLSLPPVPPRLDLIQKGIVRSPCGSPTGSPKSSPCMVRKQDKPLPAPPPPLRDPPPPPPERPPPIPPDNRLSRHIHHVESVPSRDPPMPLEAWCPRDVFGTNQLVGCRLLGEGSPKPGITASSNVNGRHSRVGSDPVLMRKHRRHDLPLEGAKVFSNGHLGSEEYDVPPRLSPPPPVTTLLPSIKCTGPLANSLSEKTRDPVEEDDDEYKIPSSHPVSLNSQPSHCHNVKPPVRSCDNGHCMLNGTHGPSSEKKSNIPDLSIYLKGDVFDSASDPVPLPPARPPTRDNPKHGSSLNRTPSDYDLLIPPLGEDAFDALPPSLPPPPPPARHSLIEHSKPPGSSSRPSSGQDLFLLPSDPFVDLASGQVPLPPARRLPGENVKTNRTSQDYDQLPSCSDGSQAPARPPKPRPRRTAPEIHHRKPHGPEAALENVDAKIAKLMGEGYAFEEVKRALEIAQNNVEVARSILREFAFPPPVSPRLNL

Regarding `Cn1cnnc1[C@@H](c1cccc(-n2cc3c(C(F)(F)F)cc(CN4CCC(OCCOCc5ccc(CN6CCN(c7ccc8c(c7)CN([C@@H]7CCC(=O)NC7=O)C8=O)CC6)cc5)CC4)cn3c2=O)c1)C1CCC1` (single isomer, unassigned) [Compound 87], the DC50 under setting [1] is 300 to 1000 nM. Also, the maximal degradation (Dmax) under setting [2] is 30 to 50%. The like results for `Cn1cnnc1[C@@H](c1cccc(-n2cc3c(C(F)(F)F)cc(CN4CCC(OCCOCc5ccc(CN6CCN(c7ccc8c(c7)CN([C@H]7CCC(=O)NC7=O)C8=O)CC6)cc5)CC4)cn3c2=O)c1)C1CCC1` (single isomer, unassigned) [Compound 88] were, in that order, less than 30 nM and more than 70%. Take `CN(CCOC1CCN(Cc2cc(C(F)(F)F)c3cn(-c4cccc([C@H](c5nncn5C)C5CCC5)c4)c(=O)n3c2)CC1)C(=O)c1ccc(N2CC3CC(C2)N3c2ccc3c(c2)CN([C@@H]2CCC(=O)NC2=O)C3=O)cc1` (single isomer, unassigned) [Compound 89]: the DC50 under setting [1] lay within 1000 to 10000 nM. The Dmax (THP-1) was 30 to 50%. In turn, `CN(CCOC1CCN(Cc2cc(C(F)(F)F)c3cn(-c4cccc([C@H](c5nncn5C)C5CCC5)c4)c(=O)n3c2)CC1)C(=O)c1ccc(N2CC3CC(C2)N3c2ccc3c(c2)CN([C@H]2CCC(=O)NC2=O)C3=O)cc1` (single isomer, unassigned) [Compound 90] returned a half-maximal degradation concentration (DC50) under setting [1] of 1000 to 10000 nM. The Dmax under setting [2] was in the range of 30 to 50%. `Cn1cnnc1[C@@H](c1cccc(-n2cc3c(C(F)(F)F)cc(CN4CCC(OCc5ccc(CN6CCN(c7ccc8c(c7)CN([C@@H]7CCC(=O)NC7=O)C8=O)CC6)cc5)CC4)cn3c2=O)c1)C1CCC1` (single isomer, unassigned) [Compound 91] yielded a half-maximal degradation concentration (DC50) under setting [1] of 300 to 1000 nM. The same compound showed a Dmax (THP-1) of 30 to 50%.

In turn, `Cn1cnnc1[C@@H](c1cccc(-n2cc3c(C(F)(F)F)cc(CN4CCC(OCc5ccc(CN6CCN(c7ccc8c(c7)CN([C@H]7CCC(=O)NC7=O)C8=O)CC6)cc5)CC4)cn3c2=O)c1)C1CCC1` (single isomer, unassigned) [Compound 92] displayed a DC50 under setting [1] of less than 30 nM. Moreover, the greatest degradation seen (Dmax) under setting [2] is more than 70%.

For `Cn1cnnc1CC1(c2cccc(-n3cc4c(C(F)(F)F)cc(CN5CCC(OCc6ccc(CN7CCN(c8ccc9c(c8)CN([C@@H]8CCC(=O)NC8=O)C9=O)CC7)cc6)CC5)cn4c3=O)c2)COC1` (single isomer, unassigned) [Compound 93], the DC50 under setting [1] was in the range of 30 to 300 nM. Besides, the greatest degradation seen (Dmax) under setting [2] fell in the range of 50 to 70%. The like results for `Cn1cnnc1CC1(c2cccc(-n3cc4c(C(F)(F)F)cc(CN5CCC(OCc6ccc(CN7CCN(c8ccc9c(c8)CN([C@H]8CCC(=O)NC8=O)C9=O)CC7)cc6)CC5)cn4c3=O)c2)COC1` (single isomer, unassigned) [Compound 94] were, in that order, less than 30 nM and more than 70%. Take `Cn1cnnc1[C@@H](c1cccc(-n2cc3c(C(F)(F)F)cc(-c4nccn4CCOCCN4CCC(CN5CCN(c6ccc7c(c6)CN([C@H]6CCC(=O)NC6=O)C7=O)CC5)CC4)cn3c2=O)c1)C1CCC1` (single isomer, unassigned) [Compound 98]: under setting [1], the DC50 is more than 10000 nM. The Dmax under setting [2] is less than 30%. The like results for `Cn1cnnc1CC1(c2cccc(-n3cc4c(C(F)(F)F)cc(-c5nccn5CCOCCN5CCC(CN6CCN(c7ccc8c(c7)CN([C@H]7CCC(=O)NC7=O)C8=O)CC6)CC5)cn4c3=O)c2)COC1` (single isomer, unassigned) [Compound 100] were, in that order, more than 10000 nM and less than 30%. Under setting [1], `CN(CCO[C@@H]1CCCN(Cc2cc(C(F)(F)F)c3cn(-c4cccc([C@H](c5nncn5C)C5CCC5)c4)c(=O)n3c2)C1)C(=O)c1ccc(N2CCN(c3ccc4c(c3)CN([C@@H]3CCC(=O)NC3=O)C4=O)CC2)cc1` (single isomer, unassigned) [Compound 103] yielded a DC50 of 300 to 1000 nM. The same measure, in the same setting: the result for `CN(CCO[C@H]1CCCN(Cc2cc(C(F)(F)F)c3cn(-c4cccc([C@H](c5nncn5C)C5CCC5)c4)c(=O)n3c2)C1)C(=O)c1ccc(N2CCN(c3ccc4c(c3)CN([C@@H]3CCC(=O)NC3=O)C4=O)CC2)cc1` (single isomer, unassigned) [Compound 105] reads 30 to 300 nM. Turning to `CN(CCOC1CCN(Cc2cc(C(F)(F)F)c3cn(-c4cccc([C@H](c5nncn5C)C5CCC5)c4)c(=O)n3c2)CC1)C(=O)c1ccc(C2CCN(c3ccc4c(c3)CN([C@@H]3CCC(=O)NC3=O)C4=O)CC2)cc1` (single isomer, unassigned) [Compound 107], the DC50 under setting [1] was in the range of 30 to 300 nM. Besides, the maximal degradation (Dmax) (THP-1) is 50 to 70%. As for `CN(CCOC1CCN(Cc2cc(C(F)(F)F)c3cn(-c4cccc([C@H](c5nncn5C)C5CCC5)c4)c(=O)n3c2)CC1)C(=O)c1ccc(C2CCN(c3ccc4c(c3)CN([C@H]3CCC(=O)NC3=O)C4=O)CC2)cc1` (single isomer, unassigned) [Compound 108], under setting [1], the DC50 is less than 30 nM. In addition, under setting [2], the Dmax was in the range of 50 to 70%.

As to `Cn1cnnc1[C@@H](c1cccc(-n2cc3c(C(F)(F)F)cc(CN4CCC(CCN5CCC(CN6CCN(c7ccc8c(c7)CN([C@@H]7CCC(=O)NC7=O)C8=O)CC6)CC5)CC4)cn3c2=O)c1)C1CCC1` (single isomer, unassigned) [Compound 109], the DC50 under setting [1] was 30 to 300 nM. `Cn1cnnc1[C@@H](c1cccc(-n2cc3c(C(F)(F)F)cc(CN4CCC(CCN5CCC(CN6CCN(c7ccc8c(c7)CN([C@H]7CCC(=O)NC7=O)C8=O)CC6)CC5)CC4)cn3c2=O)c1)C1CCC1` (single isomer, unassigned) [Compound 110] displayed a DC50 under setting [1] of less than 30 nM. Besides, under setting [2], the Dmax is more than 70%. In the same order, the values of `Cn1cnnc1[C@@H](c1cccc(-n2cc3c(C(F)(F)F)cc(CN4CCC(CC(=O)N5CCC(CN6CCN(c7ccc8c(c7)CN([C@@H]7CCC(=O)NC7=O)C8=O)CC6)CC5)CC4)cn3c2=O)c1)C1CCC1` (single isomer, unassigned) [Compound 111] are 30 to 300 nM and 50 to 70%. `Cn1cnnc1[C@@H](c1cccc(-n2cc3c(C(F)(F)F)cc(CN4CCC(CC(=O)N5CCC(CN6CCN(c7ccc8c(c7)CN([C@H]7CCC(=O)NC7=O)C8=O)CC6)CC5)CC4)cn3c2=O)c1)C1CCC1` (single isomer, unassigned) [Compound 112] came in with a DC50 under setting [1] of less than 30 nM. In addition, the Dmax under setting [2] is more than 70%.

Take `Cn1cnnc1[C@@H](c1cccc(-n2cc3c(C(F)(F)F)cc(CN4CCC(OCCc5ccc(CN6CCN(c7ccc8c(c7)CN([C@@H]7CCC(=O)NC7=O)C8=O)CC6)cc5)CC4)cn3c2=O)c1)C1CCC1` (single isomer, unassigned) [Compound 115]: the 50% degradation concentration (DC50) under setting [1] was more than 10000 nM. Moreover, the Dmax under setting [2] was less than 30%. In the same order, the values of `CN(CC1CCN(Cc2cc(C(F)(F)F)c3cn(-c4cccc([C@H](c5nncn5C)C5CCC5)c4)c(=O)n3c2)CC1)C(=O)c1ccc(N2CCN(c3ccc4c(c3)CN([C@@H]3CCC(=O)NC3=O)C4=O)CC2)cc1` (single isomer, unassigned) [Compound 117] are 1000 to 10000 nM and 30 to 50%.

With `CN(CC1CCN(Cc2cc(C(F)(F)F)c3cn(-c4cccc([C@H](c5nncn5C)C5CCC5)c4)c(=O)n3c2)CC1)C(=O)c1ccc(N2CCN(c3ccc4c(c3)CN([C@H]3CCC(=O)NC3=O)C4=O)CC2)cc1` (single isomer, unassigned) [Compound 118], under setting [1], the DC50 is less than 30 nM. Also, under setting [2], the Dmax is more than 70%. `CN(CCC(=O)N1CCC(CN2CCN(c3ccc4c(c3)CN([C@@H]3CCC(=O)NC3=O)C4=O)CC2)CC1)Cc1cc(C(F)(F)F)c2cn(-c3cccc([C@H](c4nncn4C)C4CCC4)c3)c(=O)n2c1` (single isomer, unassigned) [Compound 119] showed a DC50 under setting [1] of more than 10000 nM. In addition, the Dmax under setting [2] is less than 30%. The like results for `CN(CCC(=O)N1CCC(CN2CCN(c3ccc4c(c3)CN([C@H]3CCC(=O)NC3=O)C4=O)CC2)CC1)Cc1cc(C(F)(F)F)c2cn(-c3cccc([C@H](c4nncn4C)C4CCC4)c3)c(=O)n2c1` (single isomer, unassigned) [Compound 120] were, in that order, 30 to 300 nM and 50 to 70%. In the same order, the values of `Cn1cnnc1[C@@H](c1cccc(-n2cc3c(C(F)(F)F)cc(CN4CCN(CC(=O)N5CCC(CN6CCN(c7ccc8c(c7)CN([C@@H]7CCC(=O)NC7=O)C8=O)CC6)CC5)CC4)cn3c2=O)c1)C1CCC1` (single isomer, unassigned) [Compound 121] are 30 to 300 nM and 50 to 70%.

With `Cn1cnnc1[C@@H](c1cccc(-n2cc3c(C(F)(F)F)cc(CN4CCN(CC(=O)N5CCC(CN6CCN(c7ccc8c(c7)CN([C@H]7CCC(=O)NC7=O)C8=O)CC6)CC5)CC4)cn3c2=O)c1)C1CCC1` (single isomer, unassigned) [Compound 122], the DC50 under setting [1] is less than 30 nM. Besides, under setting [2], the Dmax was more than 70%. With `CN(CCCN1CCN(Cc2cc(C(F)(F)F)c3cn(-c4cccc([C@H](c5nncn5C)C5CCC5)c4)c(=O)n3c2)CC1)C(=O)c1ccc(N2CCN(c3ccc4c(c3)CN([C@@H]3CCC(=O)NC3=O)C4=O)CC2)cc1` (single isomer, unassigned) [Compound 123], the DC50 under setting [1] was less than 30 nM. Further, under setting [2], the Dmax was more than 70%.
